The text below walks through data of patent US5565429A, “Peptides derived from trifluoromethylketones” (Adir et Compagnie, priority 1992, dated 1996).

The target in assay [1] is T1, human sputum leucocyte elastase (Homo sapiens, UniProt P08246).
T1 sequence (P08246 30-247 limits assumed): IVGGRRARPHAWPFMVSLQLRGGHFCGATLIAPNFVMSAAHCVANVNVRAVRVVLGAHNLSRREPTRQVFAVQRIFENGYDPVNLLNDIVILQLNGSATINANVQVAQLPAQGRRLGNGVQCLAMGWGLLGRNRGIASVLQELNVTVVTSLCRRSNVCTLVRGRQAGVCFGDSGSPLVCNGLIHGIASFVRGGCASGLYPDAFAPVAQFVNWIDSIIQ
The assay is described as follows: Inhibitory activity for human leucocyte elastase in vitro. To be noted: methoxysuccinyl-Ala-Ala-Pro-Val paranitroanilide substrate, 15 min incubation, 37° C., pH 7.8. The arrangement: It is a glycoprotein of 25 to 30 kDa formed from 218 amino acids; purchased Elastin Products Co; host or cells: human sputum (natural enzyme). Format: biochemical. On the procedure:
This activity is measured by following the kinetics of hydrolysis of the substrate which leads to the release of paranitroaniline which absorbs at a wavelength of 410 nm.
Enzyme: Human sputum leucocyte elastase (Elastin Products Co.) solubilized at 1000 uI/ml of distilled water, and frozen in aliquots of 50 μl at -20° C.
Substrate: methoxysuccinyl-L-alanyl-L-alanyl-propyl-valine paranitroanilide (Sigma chimie).
Buffer: Tris 0.1M; NaCl 0.5M; pH=7.8.
10 μl of the product to be tested or of the solvent (concentrated×100)
10 μl of human sputum leucocyte elastase diluted to 1/10th
Stirring and incubation for 15 min at 37° C.
The reaction is started by addition of 10 μl of substrate.
The cell is introduced into the spectro- photometer, and the optical density is recorded as a function of time at 410 nm at 37° C.
The initial rate is measured for each product concentration (or solvent control) studied.
Percentages of inhibition with respect to the solvent control are calculated:
Percentage of inhibition=100×(control rate-rate of the product
The inhibitory concentrations 50 (IC50) are calculated from the percentages of inhibition by simple linear regression.

The target of assay [2] is T1, human sputum leucocyte elastase. The assay is described as follows: In vivo inhibitory activity: model of acute hemorrhagic edema in hamsters. The note with it: hamster, 10 μg intratracheally 3 hours before elastase (50 units); hemoglobin in broncho-alveolar washing 3 hours after elastase. The arrangement: It is a glycoprotein of 25 to 30 kDa formed from 218 amino acids; from tissue; host or cells: human sputum (purified preparation). Here is the method: In vivo inhibitory activity: model of acute hemorrhagic edema in hamsters
Tracheal instillation in hamsters of a purified preparation of human sputum leucocyte elastase leads to acute hemorrhaging which can be quantified by measuring the concentration of hemoglobin in the broncho-alveolar washing 3 hours after the elastase instillation.
The study is carried out on male hamsters weighing […] (Syrian Golden, n=10 per batch). The animals are anesthetized with pentobarbital at a dose of 40 mg/kg intraperitoneally.
The hamsters are anesthetized and the trachea is exposed surgically. The products to be tested are administered with the aid of a needle directly into the trachea in a volume of 0.1 ml at a dose of 10 μg. Human sputum leucocyte elastase is administered, 3 hours after administration of the product, intratracheally at a dose of 50 units per animal at a volume of 0.2 ml.
The animals are sacrificed with the aid of a lethal dose of pentobarbital 3 hours after instillation of elastase and a broncho-alveolar washing with physiological serum is carried out. The degree of hemorrhaging is quantified by a colorimetric method which makes it possible to quantitatively determine the hemoglobin concentration (Boehringer hemoglobin test combination).
The results are expressed in percentage of inhibition of hemorrhaging.

pIC50: −log10 of the molar value.

For the compound “4-{[3-(3-Azabicyclo[3.3.0]octane)ureido]sulpfonyl}benzoyl-(S)-Val-(S)-Abo-(R,S)-Val-CF3 [Example 2]”, the negative-log IC50 (pIC50) (as a rule, the negative decadic logarithm of the IC50, by convention in mol/L) in assay [1] was 7.60. In assay [2], the “Inhibition (%) of hemorrhaging” value is 57%.
In assay [1], `CC(C)C(NC(=O)[C@@H]1C2CCC(CC2)N1C(=O)[C@@H](NC(=O)c1ccc(C(=O)NS(=O)(=O)c2ccc(Cl)cc2)cc1)C(C)C)C(=O)C(F)(F)F` (single isomer, unassigned) [Example 4] had a pIC50 of 7.82. In addition, the “Inhibition (%) of hemorrhaging” value in assay [2] was determined as 70%.
In assay [1], `CC(=O)N[C@@H](CSC(C)(C)C)C(=O)NS(=O)(=O)c1ccc(C(=O)N[C@H](C(=O)N2C3CCC(CC3)[C@H]2C(=O)NC(C(=O)C(F)(F)F)C(C)C)C(C)C)cc1` (stereo partly drawn) [Example 18, 4-[S-tert-Butyl-N-acetyl-(S)-cysteinylaminosulfonyl]benzoyl-(S)-Val-(S)-Abo-(R,S)-Val-CF3] showed a pIC50 of 7.72. Besides, the “Inhibition (%) of hemorrhaging” value in assay [2] came out at 38%.
In assay [1], `CC(C)C(NC(=O)[C@@H]1[C@@H]2CC[C@@H](C2)N1C(=O)[C@@H](NC(=O)c1ccc(C(=O)NS(=O)(=O)c2ccc(Cl)cc2)cc1)C(C)C)C(=O)C(F)(F)F` (stereo partly drawn) [Example 22, 4-(4-Chlorophenylsulfonylaminocarbonyl)benzoyl-(S)-Val-(1S,3S,4R)-Abh-(R,S)-Val-CF3] had a pIC50 of 7.72. In assay [2], the “Inhibition (%) of hemorrhaging” value is 65%.
In assay [1], `CC(C)C(NC(=O)[C@@H]1[C@@H]2CC[C@@H](C2)N1C(=O)[C@@H](NC(=O)c1ccc(S(=O)(=O)NC(=O)c2ccccc2C(=O)N2CCSC2)cc1)C(C)C)C(=O)C(F)(F)F` (stereo partly drawn) [Example 23, 4-[2-[(1,3-Thiazolidin-3-yl)carbonyl]benzoylaminosulfonyl]benzoyl-(S)-Val-(lS,3S,4R)-Abh-(R,S)-Val-CF3] had a pIC50 of 7.52. Besides, the “Inhibition (%) of hemorrhaging” value in assay [2] is 61%.
In assay [1], `CC(C)C(NC(=O)[C@@H]1C2CCC(CC2)N1C(=O)[C@@H](NC(=O)c1ccc(S(=O)(=O)NC(=O)C(C2CC2)C2CC2)cc1)C(C)C)C(=O)C(F)(F)F` (stereo partly drawn) [Example 24, 4-[(Dicyclopropylmethyl)carbonylaminosulfonyl]benzoyl-(S)-Val-(S)-Abo-(R,S)-Val-CF3] had a pIC50 of 7.60. For the same compound, the “Inhibition (%) of hemorrhaging” value in assay [2] was found to be 46%.
On to `CC(C)C(NC(=O)c1ccc(S(=O)(=O)NC(=O)Nc2ccc(Cl)cc2)cc1)C(=O)N1C2CCC(CC2)C1C(=O)NC(C(=O)C(F)(F)F)C(C)C` [Example 25, 4-(4-Chlorophenylureidosulfonyl)benzoyl-(S)-Val-(S)-Abo-(R,S)-Val-CF3], for which, in assay [1], the pIC50 is 7.47. Moreover, the “Inhibition (%) of hemorrhaging” value in assay [2] is reported as 63%.
In assay [1], `CC(C)C(NC(=O)[C@@H]1C[C@@H]2CCCC[C@@H]2N1C(=O)[C@@H](NC(=O)c1ccc(S(=O)(=O)NC(=O)Nc2ccc(Cl)cc2)cc1)C(C)C)C(=O)C(F)(F)F` (stereo partly drawn) [Example 26, 4-(4-Chlorophenylureidosulfonyl)benzoyl-(S)-Val-(2S,3aS,7aS)-Phi-(R,S)-Val-CF3] gave a pIC50 of 7.51. In addition, the “Inhibition (%) of hemorrhaging” value in assay [2] is reported as 64%.
In the case of `CC(C)C(NC(=O)[C@@H]1C[C@@H]2CCCC[C@@H]2N1C(=O)[C@@H](NC(=O)c1ccc(S(=O)(=O)NC(=O)C(C2CC2)C2CC2)cc1)C(C)C)C(=O)C(F)(F)F` (stereo partly drawn) [Example 27, 4-[(Dicyclopropylmethyl)carbonylaminosulfonyl]benzoyl-(S)-Val-(2S,3aS,7aS)-Phi-(R,S)-Val-CF3], in assay [1], the negative logarithm of the IC50 (pIC50) was 7.54. In assay [2], the “Inhibition (%) of hemorrhaging” value is listed as 38%.
Compound `CC(C)C(NC(=O)c1ccc(S(=O)(=O)NC(=O)C23CC4CC(CC(C4)C2)C3)cc1)C(=O)N1C2CCC(CC2)C1C(=O)NC(C(=O)C(F)(F)F)C(C)C` [Example 28, 4-[(Adamant-1-yl)carbonylaminosulfonyl]benzoyl-(S)-Val-(S)-Abo-(R,S)-Val-CF3] showed a pIC50 in assay [1] of 7.33. Also, in assay [2], the “Inhibition (%) of hemorrhaging” value came out at 57%.
On to `CC(C)C(NC(=O)[C@@H]1C[C@@H]2CCCC[C@@H]2N1C(=O)[C@@H](NC(=O)c1ccc(S(=O)(=O)NC(=O)Cc2cc(C(C)(C)C)c(O)c(C(C)(C)C)c2)cc1)C(C)C)C(=O)C(F)(F)F` (stereo partly drawn) [Example 29, 4-[(3,5-Di-tert-butyl-4-hydroxybenzyl)carbonylaminosulfonyl]benzoyl-(S)-Val-(2S,3aS,7aS)-Phi-(R,S)-Val-CF3], for which, in assay [1], the negative logarithm of the IC50 (pIC50) was 7.42. Further, in assay [2], the “Inhibition (%) of hemorrhaging” value amounted to 63%.
`CC(C)C(NC(=O)[C@@H]1C[C@@H]2CCCC[C@@H]2N1C(=O)[C@@H](NC(=O)c1ccc(S(=O)(=O)NC(=O)c2ccc(CCN3CCC4(CC3)CNC(=O)O4)cc2)cc1)C(C)C)C(=O)C(F)(F)F` (stereo partly drawn) [Example 32, 4-{4-[2-(1-Oxa-2-oxo-3,8-diazaspiro[4.5]dec-8-yl)ethyl]benzoylaminosulfonyl}benzoyl-(S)-Val-(2S,3aS,7aS)-Phi-(R,S)-Val-CF3]: the negative logarithm of the IC50 (pIC50) in assay [1] is 7.38. Besides, in assay [2], the “Inhibition (%) of hemorrhaging” value was determined as 42%.
Take `CCOCC(O)COc1cc(C(=O)NS(=O)(=O)c2ccc(C(=O)N[C@H](C(=O)N3[C@H](C(=O)NC(C(=O)C(F)(F)F)C(C)C)C[C@@H]4CCCC[C@@H]43)C(C)C)cc2)ccc1OC` (stereo partly drawn) [Example 35, 4-{[4-Methoxy-3-(3-ethoxy-2-hydroxypropoxy)-benzoyl]aminosulfonyl}benzoyl-(S)-Val-(2S,3aS,7aS)-Phi-(R,S)-Val-CF3]: the negative logarithm of the IC50 (pIC50) in assay [1] is 7.43. Moreover, the “Inhibition (%) of hemorrhaging” value in assay [2] is 47%.
On to `CC(C)C(NC(=O)[C@@H]1C[C@@H]2CCCC[C@@H]2N1C(=O)[C@H](CCCCNC(=O)Cc1cc(C(C)(C)C)c(O)c(C(C)(C)C)c1)NC(=O)c1ccc(C(=O)NS(=O)(=O)c2ccc(Cl)cc2)cc1)C(=O)C(F)(F)F` (stereo partly drawn) [Example 41, 4-(4-Chlorophenylsulfonylaminocarbonyl)benzoyl-[N-(3,5-di-tert-butyl-4-hydroxyphenyl)acetyl]-(S)-Lys-(2S,3aS,7aS)-Phi-(R,S)-Val-CF3], for which, in assay [1], the negative logarithm of the IC50 (pIC50) is 7.15. In addition, in assay [2], the “Inhibition (%) of hemorrhaging” value came out at 41%.
